The source made the active and inactive calls.
Tests used:
Protein skinhead-1 = target: T1, Protein skinhead-1 (Caenorhabditis elegans, UniProt P34707); assay type: functional
T1 sequence (P34707 whole entry): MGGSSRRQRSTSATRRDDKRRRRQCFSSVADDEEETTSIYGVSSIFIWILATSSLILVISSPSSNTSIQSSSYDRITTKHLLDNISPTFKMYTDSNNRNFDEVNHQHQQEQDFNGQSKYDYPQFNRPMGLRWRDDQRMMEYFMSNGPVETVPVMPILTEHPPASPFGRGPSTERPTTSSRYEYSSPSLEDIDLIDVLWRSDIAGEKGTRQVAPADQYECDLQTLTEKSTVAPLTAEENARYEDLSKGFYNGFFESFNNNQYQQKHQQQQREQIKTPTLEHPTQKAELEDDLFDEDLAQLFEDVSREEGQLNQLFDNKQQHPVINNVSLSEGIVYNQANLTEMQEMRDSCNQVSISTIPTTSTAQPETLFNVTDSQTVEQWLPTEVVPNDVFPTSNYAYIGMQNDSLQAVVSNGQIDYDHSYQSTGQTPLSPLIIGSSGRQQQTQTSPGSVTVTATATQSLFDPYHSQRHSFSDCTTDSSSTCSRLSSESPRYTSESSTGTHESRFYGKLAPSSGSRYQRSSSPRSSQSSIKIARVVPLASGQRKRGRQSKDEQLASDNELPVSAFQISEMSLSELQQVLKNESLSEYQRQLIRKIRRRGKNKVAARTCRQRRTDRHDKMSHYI

[1] = cytotoxicity toward NIH3T3 fibroblasts, dose response, counter-screen, cell-based, ATP luminescence, mouse fibroblasts (AID 2010); assay type: functional; conditions: NIH3T3;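 note: cells exposed to compound for about 90 hours before reading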
[2] = inhibitors of intracellular T. cruzi replication, confirmation, NIH3T3 host cells, beta-gal luminescence (AID 2044); assay type: functional, cell-based;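 note: intracellular parasites grown in NIH/3T3 mouse fibroblasts as host cells; luminescent beta-galactosidase reporter signal from transgenic T. cruzi replicating inside host cells; inhibitors lower the luminescence signal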
[3] = target: T2, Ubiquitin-conjugating enzyme E2 N (Homo sapiens, UniProt P61088); assay type: functional;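 note: Dose-response confirmation in a TR-FRET assay detecting UBC13-driven polyubiquitin chain formation, inhibition measured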
T2 sequence (P61088 whole entry): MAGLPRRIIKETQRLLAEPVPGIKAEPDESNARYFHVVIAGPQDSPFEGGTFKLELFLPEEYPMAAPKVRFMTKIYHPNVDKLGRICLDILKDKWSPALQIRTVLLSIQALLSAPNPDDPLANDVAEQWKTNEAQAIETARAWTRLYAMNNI

P388 = test: cells; assay type: functional; conditions: Mus musculus
P388/ADR = test: cells; assay type: functional; conditions: Mus musculus
SN12K1 = test: cells; assay type: functional; conditions: Homo sapiens
[4] = growth suppression of beta-catenin-knockout colon cells, dose response, cell-based, HCT116, human colon tumor (AID 1045); assay type: functional;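 note: HCT116 colon tumor cells with beta catenin knocked out; cells exposed to compound for 60 hours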
[5] = growth suppression of PTEN-null colon cells, dose response, cell-based, HCT116 PTEN knockout (AID 1047); assay type: functional;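 note: HCT116 colon tumor cells with PTEN knocked out; cells exposed to compound for 60 hours before readout; potency for loss of cell viability measured by luminescence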
Cytochrome P450 2C9 = Cytochrome P450 2C9 (Homo sapiens, UniProt P11712)
Sequence of Cytochrome P450 2C9 (P11712 whole entry): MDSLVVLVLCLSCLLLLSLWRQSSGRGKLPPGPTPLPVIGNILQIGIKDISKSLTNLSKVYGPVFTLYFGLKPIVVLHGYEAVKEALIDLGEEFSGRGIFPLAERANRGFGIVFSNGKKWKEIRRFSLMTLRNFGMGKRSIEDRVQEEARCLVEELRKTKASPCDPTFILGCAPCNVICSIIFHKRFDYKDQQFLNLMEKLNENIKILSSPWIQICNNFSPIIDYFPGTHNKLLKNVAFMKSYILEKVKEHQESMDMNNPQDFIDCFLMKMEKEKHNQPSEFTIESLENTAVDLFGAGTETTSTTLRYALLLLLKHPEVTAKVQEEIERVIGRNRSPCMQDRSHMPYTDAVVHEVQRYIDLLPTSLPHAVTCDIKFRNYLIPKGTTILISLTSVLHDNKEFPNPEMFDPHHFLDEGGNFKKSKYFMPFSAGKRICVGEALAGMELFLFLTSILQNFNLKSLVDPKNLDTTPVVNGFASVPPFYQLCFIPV

Cytochrome P450 2C19 = Cytochrome P450 2C19 (Homo sapiens, UniProt P33261); test: Cytochrome panel assay with activity outcomes. Panel member name: p450-cyp2c19 Compounds with AC50 equal or less than 10 uM are considered active; assay type: functional; conditions: read-out: AC50
Sequence of Cytochrome P450 2C19 (P33261 whole entry): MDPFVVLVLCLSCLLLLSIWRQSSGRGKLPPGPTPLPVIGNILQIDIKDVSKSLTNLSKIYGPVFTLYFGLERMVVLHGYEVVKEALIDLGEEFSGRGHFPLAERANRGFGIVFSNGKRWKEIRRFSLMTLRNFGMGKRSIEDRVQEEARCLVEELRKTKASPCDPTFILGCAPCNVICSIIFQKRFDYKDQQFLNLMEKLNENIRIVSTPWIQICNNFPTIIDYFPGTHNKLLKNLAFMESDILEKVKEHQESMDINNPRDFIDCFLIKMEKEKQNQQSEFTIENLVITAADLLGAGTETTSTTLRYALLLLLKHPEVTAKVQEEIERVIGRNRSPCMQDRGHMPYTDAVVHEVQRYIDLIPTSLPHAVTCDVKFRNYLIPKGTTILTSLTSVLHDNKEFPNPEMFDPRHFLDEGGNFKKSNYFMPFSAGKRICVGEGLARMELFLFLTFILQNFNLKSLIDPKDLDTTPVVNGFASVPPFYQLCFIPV

[6] = THP-1 cell cytotoxicity, dose response, cytotoxicity control for non-replicating M. tuberculosis project (AID 489025); assay type: functional
Streptococcus = test: Group A Streptococcus viability loss, dose response, counter-screen for streptokinase expression inhibitor project, luminescence, BacTiterGlo (AID 1915); assay type: functional, organism-based; conditions: Streptococcus;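 note: potency for reduction of bacterial viability or growth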
[7] = Vero E6 cell cytotoxicity, dose response, cytotoxicity control for non-replicating M. tuberculosis project, secondary assay (AID 492998); assay type: functional, VeroE6; conditions: Vero C1008
cells = assay type: functional
[8] = tested on: Streptococcus sp. 'group A'; test: growth inhibition of control SK(-) GAS strain, dose response, counter-screen for streptokinase expression inhibitor project, luminescence, kanamycin, BacTiterGlo, confirmation (AID 1900); assay type: functional, organism-based; conditions: Streptococcus sp. 'group A'
[9] = Luminescence Cell-Based Dose Confirmation HTS to Identify Inhibitors of Platelet Dense Granule Release. [Related pubchem assays: 1663 (Primary HTS), 1678 (Summary of Project)]; assay type: functional
[10] = target: Luciferin 4-monooxygenase (Photinus pyralis, UniProt P08659); test: firefly luciferase enzyme inhibitors, dose response, biochemical, luminescence (AID 1891)
Sequence of Luciferin 4-monooxygenase (P08659 whole entry): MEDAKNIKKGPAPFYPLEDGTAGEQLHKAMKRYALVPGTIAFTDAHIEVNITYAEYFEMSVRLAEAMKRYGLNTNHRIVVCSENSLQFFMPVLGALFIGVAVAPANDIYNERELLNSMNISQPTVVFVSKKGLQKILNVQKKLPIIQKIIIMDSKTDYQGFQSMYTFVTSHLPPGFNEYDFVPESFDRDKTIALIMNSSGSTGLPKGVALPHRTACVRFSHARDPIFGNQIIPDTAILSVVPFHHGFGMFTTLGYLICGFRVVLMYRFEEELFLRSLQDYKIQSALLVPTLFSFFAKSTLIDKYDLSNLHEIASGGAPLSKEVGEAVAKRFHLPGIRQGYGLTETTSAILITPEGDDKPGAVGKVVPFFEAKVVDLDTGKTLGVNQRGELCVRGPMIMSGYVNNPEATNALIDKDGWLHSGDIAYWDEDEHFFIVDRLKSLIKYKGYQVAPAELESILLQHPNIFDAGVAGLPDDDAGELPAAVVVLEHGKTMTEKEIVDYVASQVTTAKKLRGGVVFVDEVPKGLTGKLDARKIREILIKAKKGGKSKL

Genome polyprotein = Genome polyprotein (dengue virus type 2, UniProt P29990); test: Dengue-2 NS5 methyltransferase inhibitors, primary screen, biochemical, confirmation dose response (AID 588689); assay type: functional
Sequence of Genome polyprotein (P29990 2492-3391 limits assumed): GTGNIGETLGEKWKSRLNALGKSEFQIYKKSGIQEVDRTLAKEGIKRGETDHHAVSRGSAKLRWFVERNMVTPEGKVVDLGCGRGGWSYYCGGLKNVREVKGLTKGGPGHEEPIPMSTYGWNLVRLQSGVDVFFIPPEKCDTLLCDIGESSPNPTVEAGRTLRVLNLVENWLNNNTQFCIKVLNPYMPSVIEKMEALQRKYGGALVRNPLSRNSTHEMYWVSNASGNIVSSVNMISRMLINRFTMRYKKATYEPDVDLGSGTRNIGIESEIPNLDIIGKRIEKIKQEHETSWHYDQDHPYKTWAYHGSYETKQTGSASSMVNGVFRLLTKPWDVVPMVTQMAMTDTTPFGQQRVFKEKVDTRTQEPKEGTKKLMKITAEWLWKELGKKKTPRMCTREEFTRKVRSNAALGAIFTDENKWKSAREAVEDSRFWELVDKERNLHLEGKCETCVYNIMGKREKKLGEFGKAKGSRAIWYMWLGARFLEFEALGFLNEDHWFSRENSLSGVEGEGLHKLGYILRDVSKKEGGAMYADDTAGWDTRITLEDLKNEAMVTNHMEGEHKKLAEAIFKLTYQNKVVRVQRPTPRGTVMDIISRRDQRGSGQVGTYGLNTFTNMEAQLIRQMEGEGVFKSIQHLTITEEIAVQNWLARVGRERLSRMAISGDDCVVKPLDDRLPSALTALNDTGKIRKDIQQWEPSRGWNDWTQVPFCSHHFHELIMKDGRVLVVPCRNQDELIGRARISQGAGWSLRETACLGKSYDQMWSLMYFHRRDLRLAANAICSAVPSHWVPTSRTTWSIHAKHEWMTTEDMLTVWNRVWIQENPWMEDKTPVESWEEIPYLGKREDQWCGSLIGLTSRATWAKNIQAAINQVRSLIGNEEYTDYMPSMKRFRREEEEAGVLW

Cytochrome P450 2D6 = Cytochrome P450 2D6 (Homo sapiens, UniProt P10635);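 note: CYP2D6 member of a cytochrome P450 panel assay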
Sequence of Cytochrome P450 2D6 (P10635 whole entry): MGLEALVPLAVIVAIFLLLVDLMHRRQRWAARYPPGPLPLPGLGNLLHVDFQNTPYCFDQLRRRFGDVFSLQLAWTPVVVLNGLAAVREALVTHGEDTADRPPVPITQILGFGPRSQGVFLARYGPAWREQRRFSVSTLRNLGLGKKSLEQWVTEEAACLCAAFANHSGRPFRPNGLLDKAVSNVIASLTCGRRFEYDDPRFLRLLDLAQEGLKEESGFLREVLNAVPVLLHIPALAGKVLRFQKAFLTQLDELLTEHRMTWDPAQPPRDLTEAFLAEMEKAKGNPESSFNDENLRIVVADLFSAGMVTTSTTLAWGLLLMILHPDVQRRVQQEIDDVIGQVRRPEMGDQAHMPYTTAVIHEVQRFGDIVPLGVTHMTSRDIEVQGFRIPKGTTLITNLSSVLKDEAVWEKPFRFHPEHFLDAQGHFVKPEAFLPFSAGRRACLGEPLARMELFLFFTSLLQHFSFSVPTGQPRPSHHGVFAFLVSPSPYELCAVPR

Cytochrome P450 1A2 = target: T3, Cytochrome P450 1A2 (Homo sapiens, UniProt P05177);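 note: PubChem cytochrome P450 panel assay, CYP1A2 panel member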
T3 sequence (P05177 whole entry): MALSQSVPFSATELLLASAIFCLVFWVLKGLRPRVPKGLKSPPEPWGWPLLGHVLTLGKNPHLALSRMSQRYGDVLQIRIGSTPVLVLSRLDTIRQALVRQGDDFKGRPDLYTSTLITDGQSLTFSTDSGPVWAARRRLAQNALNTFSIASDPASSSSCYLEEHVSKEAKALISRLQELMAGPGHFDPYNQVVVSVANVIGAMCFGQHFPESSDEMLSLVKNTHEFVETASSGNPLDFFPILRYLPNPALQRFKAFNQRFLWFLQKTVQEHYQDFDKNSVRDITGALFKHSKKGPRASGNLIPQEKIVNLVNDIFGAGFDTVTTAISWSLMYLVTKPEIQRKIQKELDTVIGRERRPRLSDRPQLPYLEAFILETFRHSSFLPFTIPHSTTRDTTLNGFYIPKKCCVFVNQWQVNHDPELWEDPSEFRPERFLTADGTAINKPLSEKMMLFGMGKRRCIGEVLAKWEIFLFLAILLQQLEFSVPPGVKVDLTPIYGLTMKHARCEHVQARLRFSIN

[11] = Luminescence Cell-Based Dose Retest to Confirm Inhibitors of Cancer Stem Cells. [Related pubchem assays (depositor defined):AID2717, AID2721]; assay type: functional, Homo sapiens; conditions: Homo sapiens

With `O=C(/N=C1/N=C2C=CC(Br)=CN2Cc2ccccc21)c1ccc([N+](=O)[O-])cc1[N+](=O)[O-]` the IC50 (Protein skinhead-1) was 28.3 µM (active), the EC50 [1] was > 60 µM (not active) and the EC50 [2] was 1.39 µM (active).

With `COc1ccccc1NC(=O)CNC(=O)CC12CC3CC(CC(C3)C1)C2` the IC50 [3] was > 20 µM (inactive).

For `NC1=NC(c2ccccc2)CC(c2cc(Cl)cc(Br)c2O)=N1` (configuration not stated), the GI50 (P388) was 2.9 µM (inactive), the GI50 (P388/ADR) was 3.87 µM (inactive) and the GI50 (SN12K1) was 13.6 µM (inactive).

With `c1csc(-c2nc3nc4ccccc4nc3n2Cc2ccc3c(c2)OCO3)c1` the EC50 [4] was 45.5 µM (active) and the EC50 [5] was 48.7 µM (active).

In the case of `CCOC(=O)C(/C=N/c1ncccc1C)=C(/O)OCC`, the AC50 (Cytochrome P450 2C9) is reported as “inconclusive”.

For `Cc1cc(C(=O)N/N=C/c2cccc([N+](=O)[O-])c2)c(C)o1`, the AC50 (Cytochrome P450 2C9) was “inconclusive” and the AC50 (Cytochrome P450 2C19) was 22.4 µM (inconclusive).

For `CCC1=CC2CN3CCc4c([nH]c5ccccc45)C(C(=O)OC)(C2)C13` (configuration not stated), the GI50 (P388) was 21 µM (inactive), the GI50 (P388/ADR) was 30.1 µM (inactive) and the GI50 (SN12K1) was 17.7 µM (inactive).

For `Cc1ccn2c(NC3CCCC3)c(-c3ccccn3)nc2c1`, the CC50 [6] was 17.5 µM (active), the EC50 (Streptococcus) was 13.3 µM (active) and the CC50 [7] was 10.1 µM (active). For the same compound, the EC50 [1] was > 60 µM (not active), the EC50 [2] was 2.06 µM (active) and the IC50 (cells) was 4.71 µM (active). The EC50 [8] was 3.14 µM (active).

For `C(=N/NC1=NCCN1)/c1c2ccccc2c(/C=N\NC2=NCCN2)c2ccccc12`, the GI50 (P388) was 0.000861 µM (active), the GI50 (P388/ADR) was 14.6 µM (inactive) and the GI50 (SN12K1) was 0.0284 µM (active).

For `COC(=O)c1ccc(Cl)c(NC(=O)c2ccc(-c3ccccc3)cc2)c1`, the AC50 (Cytochrome P450 2C9) was “inconclusive”.

In the case of `CN(C(=O)Cn1nnc(-c2cccc(C(F)(F)F)c2)n1)C1CCCCC1`, the AC50 (Cytochrome P450 2C9) is reported as “inconclusive”, the EC50 [9] is reported as > 112 µM (not active) and the EC50 [10] is reported as > 112 µM (not active).

In the case of `Cc1ccccc1CN1C(=O)C(O)(CC(=O)c2ccncc2)c2ccccc21` (configuration not stated), the EC50 [4] is reported as 9.54 µM (active) and the EC50 [5] is reported as 7.98 µM (active).

For `O=C(O)CN1C(=O)/C(=C\c2cccc(OCc3ccc(Cl)cc3)c2)SC1=S`, the IC50 (Genome polyprotein) was 39.5 µM (active).

In the case of `CN(CC(=O)Nc1cccc2c1CCCC2)S(=O)(=O)c1ccc(Br)cc1`, the AC50 (Cytochrome P450 2C9) is reported as “inconclusive”, the AC50 (Cytochrome P450 2D6) is reported as 3.16 µM (inconclusive) and the AC50 (Cytochrome P450 1A2) is reported as 10 µM (inconclusive).

For `Clc1ccc2c(N/N=C/c3ccc(Br)cc3)ccnc2c1`, the AC50 [11] was 3.79 µM (active), the EC50 [4] was 9.32 µM (active) and the EC50 (Streptococcus) was 3.89 µM (active). The EC50 [8] was 2.54 µM (active) and the EC50 [5] was 15.5 µM (active).

In the case of `FC(F)(F)c1ccccc1-c1ccc2ncnc(NC3CCNCC3)c2c1`, the AC50 (Cytochrome P450 2C9) is reported as “inconclusive” and the AC50 (Cytochrome P450 1A2) is reported as 20 µM (inconclusive).
